Source: US20070208043A1, “Use of Serum Amyloid A Gene in Diagnosis and Treatment of Glaucoma and Identification of Anti-Glaucoma Agents” (ALCON, INC., priority 2003, published 2007)
Entries after “also recorded” stand apart in the source; their conditions may differ. Like-named read-outs stand apart in the source and are kept apart here. One block for each molecule: values may come before it.

Columns and labels:
[1] = system: SAA induced IL-8 secretion in TM cells; assay: Inhibition of SAA induced IL-8 secretion in TM cells (IL-8 in media by ELISA); type: cell-based
Description: FIG. 11. Effect of MAP p38 kinase inhibitors on induction of IL-8 by SAA treatment (1 μg/ml) in TM cells. […] IL-8 was measured in the media by ELISA.
(§1) FIG. 12. […] NTM650-03, p9 or HL-60 cells were treated in serum-free DMEM for 4 hours with 1 μg/ml SAA and the indicated concentrations of SB202580. IL-8 was measured in the media by ELISA.
(§2) One pathway for upregulation of IL-8 is through activation of MAP kinases.

[2] = system: SAA stimulated IL-8 secretion in HL-60 cells; assay: Inhibition of SAA stimulated IL-8 secretion in HL-60 cells (IL-8 in media by ELISA); type: cell-based; conditions: for Times more effective than SB203580: HL60 cells, inhibition curves; for IC50: Homo sapiens, read-out: Calculated IC50, inhibition of SAA stimulated IL-8 secretion
Description: as §1
FIG. 13. […] IL-8 was measured in the media by ELISA.
as §2

[3] = system: Adv.SAA2-induced IOP in mouse; assay: Mouse IOP after intravitreal injection of Adv.SAA2 + anti-CD40L; topical p38 MAPK inhibitor; conditions: topical 1% b.i.d.
Description: Contralateral eye of each animal was not injected. In addition to Adv, each animal received IP injection of anti-CD40L (0.5 mg/injection) on days −1, 0, 1, 2, 5, 9, & 14 to prolong the expression period of the Adv.SAA2. Mouse IOP was measured by Tonolab in a mask way. Mean of IOP for each eye was obtained from 18 to 30 measurements.

[4] = system: plasma SAA concentration; conditions: in vivo; cited from earlier work
[5] = system: perfused human anterior segments; assay: Perfusion cultured human eyes treated with recombinant SAA; conditions: 1 μg/mL, all five eyes
Description: FIG. 9. Effect of recombinant human Serum Amyloid A (rhSAA, 1 μg/mL; treatment started at time 0) on IOP of perfused human anterior segments.
FIG. 10. Effect of recombinant human Serum Amyloid A (rhSAA, 1 μg/mL; treatment started at time 0) on interleukin-8 (IL-8) level in the perfusate of perfused human anterior segments.
Five pairs of human eyes were perfused with media containing either recombinant SAA (1 μg/mL) (experimental eye) or an equivalent volume of vehicle (control eye). At the end of the culture period, 4 quadrants of each eye were examined by transmission electron microscopy to determine TM tissue viability. Perfusate of each eye was collected and used for ELISA measurement of IL-8 level. […] The change in IOP correlated with SAA-induced increase in interleukin-8 in the perfusates. All five pairs of eyes had acceptable post-perfusion TM viability scores.

[6] = system: HL-60 cells; assay: IL-8 secretion by HL-60 cells in response to rhSAA; type: cell-based; conditions: four hours, increasing concentrations
Description: FIG. 5. IL-8 secretion by HL-60 cells in response to increasing concentrations of rhSAA.
Cytokine-like properties of SAA include induction of IL-8 secretion by neutrophils. (Furlaneto and Campa, 2002; He et al. 2003). HL-60 cells, a promyelocytic cell line, was identified that responds to SAA with increased IL-8 secretion, and can be used for in vitro assays of SAA function. HL-60 cells were treated for four hours with increasing concentrations of recombinant human SAA, and IL-8 was measured in the media by ELISA. […] HL-60 cells can be used as a surrogate cell line for functional assays to identify agents that alter SAA function and expression levels.

[7] = read-out: % Inhibition of SAA induced IL-8 secretion
[8] = 10 μM, TM cells, read-out: % Inhibition of SAA induced IL-8 secretion
[9] = 50 μM, TM cells, read-out: % Inhibition of SAA induced IL-8 secretion
[10] = 1 μM, TM cells, read-out: % Inhibition of SAA induced IL-8 secretion

IC50 ([2]; HL-60, 4 h): 300 nM
Effect on iris hyperemia in the injected eyes ([3]; Ad.SAA2-injected eyes): did not affect hyperemia
Molecule: Fc1ccc(-c2c(-c3ccncc3)[nH]c3cccnc23)cc1 [4-azaindole, 3-(4-fluorophenyl)-2-(pyridin-4-yl)-1H-pyrrolo[3,2-b]pyridine]
Inhibition of SAA induced IL-8 expression (in words) ([1]; TM cells): most potent
inhibition at 10 µM [1, 7]: 22.6%
inhibition at 50 µM [1, 7]: 94.3%
Times more effective than SB203580 [2]: approximately 10 times
Effect on IOP in the non-injected eyes [3]: did not affect IOP
Effect on Ad.SAA2-induced ocular hypertension (IOP) ([3]; days -1 to 7 and 13 to 17, Ad.SAA2 2×10^7 pfu/eye + antiCD40L): significantly inhibited; also recorded: blocked
Time to lower IOP to baseline after drug administration was resumed at day 13 ([3]; Ad.SAA2-injected mouse eyes): 3 days

IC50 ([2]; HL-60 cells, serum-free DMEM, 4 hours, 1 μg/ml SAA): 500 nM
Molecule: Cc1ccc(-n2nc(C(C)(C)C)cc2NC(=O)Nc2ccc(OCCN3CCOCC3)c3ccccc23)cc1 [BIRB-796, 1-(5-tert-butyl-2-p-tolyl-2H-pyrazol-3-yl)-3(4-(2-morpholin-4-yl-ethoxy)naph-thalen-1-yl)urea]
inhibition at 10 µM [1, 8]: 28.9%
inhibition at 50 µM [1, 9]: 78.1%
Inhibition of SAA induced IL-8 expression (in words) ([1]; TM cells): most potent
Times more effective than SB203580 [2]: approximately 10 times

Molecule: COc1cccc(-c2cc(=O)c3ccccc3o2)c1N [PD98059, 2′-amino-3′-methoxyflavone]
inhibition at 50 µM [1, 9]: 34%

Molecule: Oc1ccc(-c2nc(-c3ccc(F)cc3)c(-c3ccncc3)[nH]2)cc1 [SB202190, 4-[4-(4-fluorophenyl)-5-(4-pyridinyl)-1H-imidazol-2-yl]phenol]
inhibition at 1 µM [1, 10]: 17.2%
inhibition at 10 µM [1, 8]: 43.3%
inhibition at 50 µM [1, 9]: 38.2%

Molecule: C[S+]([O-])c1ccc(-c2nc(-c3ccc(F)cc3)c(-c3ccncc3)[nH]2)cc1 (stereo not shown) [SB203580, 4-(4-fluorophenyl)-2-(4-methylsulfinylphenyl)-5-(4-pyridyl)-1H-imidazole]
Inhibition of SAA induced IL-8 expression (in words) ([1]; TM cells): most potent
inhibition at 1 µM [1, 7]: 16.3%
inhibition at 10 µM [1, 7]: 38.1%
inhibition at 25 µM [1, 7]: 61%
inhibition at 50 µM [1, 7]: 73.8%
inhibition at 100 µM [1, 7]: 98.7%

Molecule: N#CC(=C(/N)Sc1ccccc1N)/C(C#N)=C(/N)Sc1ccccc1N [U0126, 1,4-diamino-2,3-dicyano-1,4-bis(2-aminophynyltio)butadiene]
inhibition at 1 µM [1, 10]: 30.9%
inhibition at 10 µM [1, 8]: 50.6%
inhibition at 50 µM [1, 9]: 53%

Molecule: Cc1cccc(Nc2cc(Cl)nc(SCC(=O)O)n2)c1C [WY 14643, (4-chloro-6-(2,3-xylidino)-2-pryrimidinylthiol)-acetic acid]
Plasma SAA concentration [4]: reduces

B1: recombinant SAA: recombinant human Serum Amyloid A protein (protein, UniProt P0DJI8 19-122, looked up)
Serum amyloid A-1 protein: RSFFSFLGEAFDGARDMWRAYSDMREANYIGSDKYFHARGNYDAAKRGPGGAWAAEVITDARENIQRFFGHGAEDSLADQAANEWGRSGKDPNHFRPAGLPEKY
IL-8 level in perfusate [5]: elevated IL-8 level
IOP of perfused human eyes ([5]; within 24 h of treatment): elevated IOP
IL-8 secretion [6]: increased in a dose dependent manner
